# Where a SMILES comes first, the peptide text is derived from it. Bridges are numbered along the chain shown (N, C = ends). [ ]: non-standard residue; d: D form. The star is where a group is joined. Benzothiophen(2-yl)carbonyl = O=C(c1cc2ccccc2s1)*; Quinaldoyl = O=C(c1ccc2ccccc2n1)*; X22 = Cn1c(C(=O)*)cc2ccccc21; X23 = O=C(c1cc2ccccc2[nH]1)*; X36 = O=C(c1ncc(Br)cc1Br)*; X1 = O=C(c1ncc(Cl)cc1Cl)*; X26 = CCc1ccc(C(=O)*)cn1; X7 = O=C(c1nc2ccccc2o1)*; Dab = NCC[C@H](N)C(=O)O; Abu = CC[C@H](N)C(=O)O; Dap = NC[C@H](N)C(=O)O
# Columns and labels:
# Assay type in all cases: cell-based
# [1] = tested on: Acinetobacter baumannii ATCC 17978; conditions: ATCC 17978
# Procedure, shortened: (§1)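 Broth microdilution, CAMHB, per CLSI M100-S24; lipopeptides as TFA salts; polymyxin B sulphate control. Read-out: MIC. Strains are polymyxin-susceptible; PA022 and AB034 are MDR clinical isolates.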
# [2] = tested on: Acinetobacter baumannii FADDI-AB034; conditions: FADDI-AB034
# Procedure, shortened: as §1
# [3] = tested on: Enterobacter cloacae FADDI-EC001; conditions: FADDI-EC001
# Procedure, shortened: (§2)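 Broth microdilution MIC per CLSI in cation-adjusted Mueller-Hinton broth, lipopeptides tested as TFA salts. Polymyxin B sulphate served as control.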
# [4] = tested on: Enterobacter cloacae FADDI-EC003; conditions: FADDI-EC003
# Procedure, shortened: as §1
# [5] = tested on: Enterobacter cloacae FADDI-EC006; conditions: FADDI-EC006
# Procedure, shortened: as §1
# [6] = tested on: Klebsiella pneumoniae FADDI-KP022; conditions: FADDI-KP022
# Procedure, shortened: as §1
# [7] = tested on: Klebsiella pneumoniae FADDI-KP032; conditions: FADDI-KP032
# Procedure, shortened: as §1
# [8] = tested on: Klebsiella pneumoniae Kp BM1; conditions: Kp BM1
# Procedure, shortened: as §2
# [9] = tested on: Pseudomonas aeruginosa ATCC 27853; conditions: ATCC 27853
# Procedure, shortened: as §1
# [10] = tested on: Pseudomonas aeruginosa FADDI-PA01; conditions: FADDI-
# Procedure, shortened: as §1
# [11] = tested on: Pseudomonas aeruginosa FADDI-PA022; conditions: FADDI-PA022
# Procedure, shortened: as §1
# [12] = tested on: Pseudomonas aeruginosa FADDI-PA038; conditions: FADDI-PA038
# Procedure, shortened: as §1
# [13] = tested on: Acinetobacter baumannii FADDI-AB030; assay: microbe, parasite or virus in culture; conditions: FADDI-AB030
# Procedure, shortened: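 Lipopeptide TFA salts tested against the multidrug-resistant clinical isolate by CLSI (M100-S24) broth microdilution in cation-adjusted Mueller-Hinton broth, with polymyxin B sulphate as control; MIC read.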
SMILES,Minimum inhibitory concentration [1],Minimum inhibitory concentration [2],Minimum inhibitory concentration [3],Minimum inhibitory concentration [4],Minimum inhibitory concentration [5],Minimum inhibitory concentration [6],Minimum inhibitory concentration [7],Minimum inhibitory concentration [8],Minimum inhibitory concentration [9],Minimum inhibitory concentration [10],Minimum inhibitory concentration [11],Minimum inhibitory concentration [12],Minimum inhibitory concentration [13]
CC[C@@H]1NC(=O)[C@@H](CC(C)C)NC(=O)[C@H](CCN)NC(=O)[C@@H](NC(=O)[C@H](CN)NC(=O)[C@@H](NC(=O)[C@H](CCN)NC(=O)c2cc3ccccc3[nH]2)[C@@H](C)O)CCNC(=O)[C@H]([C@@H](C)O)NC(=O)[C@H](CCN)NC(=O)[C@H](CCN)NC1=O [Compound 56] (X23-[Dab]T[Dap][Dab][Dab][dL][Abu][Dab][Dab]T; lactam 4-C),0.25 mg/L,<0.125 mg/L,<0.125 mg/L,0.5 mg/L,0.5 mg/L,<0.125 mg/L,<0.125 mg/L,0.25 mg/L,0.25 mg/L,<0.125 mg/L,0.25 mg/L,0.5 mg/L,0.25 mg/L
CCc1ccc(C(=O)N[C@@H](CCN)C(=O)N[C@H](C(=O)N[C@@H](CN)C(=O)N[C@H]2CCNC(=O)[C@H]([C@@H](C)O)NC(=O)[C@H](CCN)NC(=O)[C@H](CCN)NC(=O)[C@H](CC)NC(=O)[C@@H](CC(C)C)NC(=O)[C@H](CCN)NC2=O)[C@@H](C)O)cn1 [Compound 41] (X26-[Dab]T[Dap][Dab][Dab][dL][Abu][Dab][Dab]T; lactam 4-C),2 mg/L,2 mg/L,<0.125 mg/L,<0.125 mg/L,0.25 mg/L,<0.125 mg/L,<0.125 mg/L,<0.125 mg/L,0.25 mg/L,0.25 mg/L,<0.125 mg/L,0.5 mg/L,2 mg/L
CC[C@@H]1NC(=O)[C@@H](CC(C)C)NC(=O)[C@H](CCN)NC(=O)[C@@H](NC(=O)[C@H](CN)NC(=O)[C@@H](NC(=O)[C@H](CCN)NC(=O)c2cc3ccccc3n2C)[C@@H](C)O)CCNC(=O)[C@H]([C@@H](C)O)NC(=O)[C@H](CCN)NC(=O)[C@H](CCN)NC1=O [Compound 48] (X22-[Dab]T[Dap][Dab][Dab][dL][Abu][Dab][Dab]T; lactam 4-C),<0.125 mg/L,0.25 mg/L,<0.125 mg/L,0.25 mg/L,0.25 mg/L,<0.125 mg/L,<0.125 mg/L,<0.125 mg/L,0.25 mg/L,<0.125 mg/L,0.25 mg/L,<0.125 mg/L,<0.125 mg/L
CC[C@@H]1NC(=O)[C@@H](CC(C)C)NC(=O)[C@H](CCN)NC(=O)[C@@H](NC(=O)[C@H](CN)NC(=O)[C@@H](NC(=O)[C@H](CCN)NC(=O)c2cc3ccccc3s2)[C@@H](C)O)CCNC(=O)[C@H]([C@@H](C)O)NC(=O)[C@H](CCN)NC(=O)[C@H](CCN)NC1=O [Compound 50] ({Benzothiophen(2-yl)carbonyl}-[Dab]T[Dap][Dab][Dab][dL][Abu][Dab][Dab]T; lactam 4-C),<0.125 mg/L,<0.125 mg/L,0.25 mg/L,0.5 mg/L,0.5 mg/L,<0.125 mg/L,0.25 mg/L,0.5 mg/L,0.5 mg/L,<0.125 mg/L,0.25 mg/L,0.25 mg/L,0.5 mg/L
CC[C@@H]1NC(=O)[C@@H](CC(C)C)NC(=O)[C@H](CCN)NC(=O)[C@@H](NC(=O)[C@H](CN)NC(=O)[C@@H](NC(=O)[C@H](CCN)NC(=O)c2nc3ccccc3o2)[C@@H](C)O)CCNC(=O)[C@H]([C@@H](C)O)NC(=O)[C@H](CCN)NC(=O)[C@H](CCN)NC1=O [Compound 74] (X7-[Dab]T[Dap][Dab][Dab][dL][Abu][Dab][Dab]T; lactam 4-C),1 mg/L,1 mg/L,<0.125 mg/L,<0.125 mg/L,0.5 mg/L,<0.125 mg/L,0.25 mg/L,0.25 mg/L,0.25 mg/L,0.5 mg/L,0.25 mg/L,0.5 mg/L,0.5 mg/L
CC[C@@H]1NC(=O)[C@@H](CC(C)C)NC(=O)[C@H](CCN)NC(=O)[C@@H](NC(=O)[C@H](CN)NC(=O)[C@@H](NC(=O)[C@H](CCN)NC(=O)c2ncc(Br)cc2Br)[C@@H](C)O)CCNC(=O)[C@H]([C@@H](C)O)NC(=O)[C@H](CCN)NC(=O)[C@H](CCN)NC1=O [Compound 22] (X36-[Dab]T[Dap][Dab][Dab][dL][Abu][Dab][Dab]T; lactam 4-C),0.5 mg/L,0.5 mg/L,<0.125 mg/L,<0.125 mg/L,<0.125 mg/L,<0.125 mg/L,<0.125 mg/L,<0.125 mg/L,0.5 mg/L,0.25 mg/L,0.5 mg/L,0.5 mg/L,0.5 mg/L
CC(C)C[C@H]1NC(=O)[C@H](CCN)NC(=O)[C@@H](NC(=O)[C@H](CN)NC(=O)[C@@H](NC(=O)[C@H](CCN)NC(=O)c2ncc(Cl)cc2Cl)[C@@H](C)O)CCNC(=O)[C@H]([C@@H](C)O)NC(=O)[C@H](CCN)NC(=O)[C@H](CCN)NC(=O)[C@H](C(C)C)NC1=O [Compound 13] (X1-[Dab]T[Dap][Dab][Dab][dL]V[Dab][Dab]T; lactam 4-C),1 mg/L,2 mg/L,<0.125 mg/L,<0.125 mg/L,<0.125 mg/L,0.25 mg/L,0.25 mg/L,0.25 mg/L,0.5 mg/L,0.5 mg/L,0.5 mg/L,1 mg/L,0.5 mg/L
CC(C)C[C@H]1NC(=O)[C@H](CCN)NC(=O)[C@@H](NC(=O)[C@H](CN)NC(=O)[C@@H](NC(=O)[C@H](CCN)NC(=O)c2cc3ccccc3n2C)[C@@H](C)O)CCNC(=O)[C@H]([C@@H](C)O)NC(=O)[C@H](CCN)NC(=O)[C@H](CCN)NC(=O)[C@H](C)NC1=O [Compound 65] (X22-[Dab]T[Dap][Dab][Dab][dL]A[Dab][Dab]T; lactam 4-C),1 mg/L,1 mg/L,0.5 mg/L,1 mg/L,1 mg/L,0.25 mg/L,0.5 mg/L,0.25 mg/L,0.5 mg/L,0.25 mg/L,0.25 mg/L,0.5 mg/L,0.5 mg/L
CC[C@@H]1NC(=O)[C@@H](CC(C)C)NC(=O)[C@H](CCN)NC(=O)[C@@H](NC(=O)[C@H](CN)NC(=O)[C@@H](NC(=O)[C@H](CCN)NC(=O)c2ccc3ccccc3n2)[C@@H](C)O)CCNC(=O)[C@H]([C@@H](C)O)NC(=O)[C@H](CCN)NC(=O)[C@H](CCN)NC1=O [Compound 55] (Quinaldoyl-[Dab]T[Dap][Dab][Dab][dL][Abu][Dab][Dab]T; lactam 4-C),1 mg/L,0.25 mg/L,<0.125 mg/L,<0.125 mg/L,<0.125 mg/L,<0.125 mg/L,<0.125 mg/L,0.5 mg/L,0.25 mg/L,0.25 mg/L,<0.125 mg/L,0.25 mg/L,0.25 mg/L

# From US11225505B2, “Antimicrobial polymyxin derivative compounds” (MONASH UNIVERSITY, priority 2015, dated 2022)
